These are literature values, as cited in PubChem BioAssay AID1259409 (Chemical Carcinogenesis Research Information System (CCRIS), 2018).

This series has as its system rodent chemically induced tumor inhibition, incidence and multiplicity. Put plainly: CCRIS tumor inhibitor studies. Particulars: Promoter: NONE USED.

Where “and” joins values, the source holds several entries; their conditions need not be identical. Equal values may be shown once.

As for `Cc1cc(O)cc(=O)o1`, the “tumour outcome (control, treated, inhibition, significance)” value (Carcinogen: BENZO[A]PYRENE, 50-32-8, Dose [Inhibitor]: 0.034 MMOL/G IN DIET FOR 5 WK BEGINNING 1 WK PRIOR TO FIRST CARCINOGEN DOSE AND CONTINUING FOR 3 D POST LAST CARCINOGEN, Route [Inhibitor]: ORAL, Species: MOUSE, Strain/Sex: ICR/FEMALE, Target Tissue: Type of Lesion: FORESTOMACH: TUMOR, Dose [Carcinogen]: 1 MG IN 0.2 ML CORN OIL 2/WK FOR 4 WK STARTING) is reported as 94%, 85%, 10%, not significant.

In the case of `CC(=O)/C=C/C1=C(C)CCCC1(C)C`, the “tumour outcome (control, treated, inhibition, significance)” value (Carcinogen: 7,12-DIMETHYLBENZ[A]ANTHRACENE, 57-97-6, Dose [Inhibitor]: 0, 36 MMOL/KG IN DIET FOR 24 WK BEGINNING 2 WK PRIOR TO CARCINOGEN DOSE (STUDY DURATION: 24 WK), Route [Inhibitor]: ORAL, Species: RAT, Strain/Sex: SPRAGUE-DAWLEY/FEMALE, Target Tissue: Type of Lesion: MAMMARY GLAND: TUMOR, Dose [Carcinogen]: 65 MG/KG BW ONCE) is listed as 91%, 41%, 55%, not calculated and the “tumour outcome (control, treated, inhibition, significance)” value (Dose [Inhibitor]: 0, 1000 PPM IN DIET BEGINNING 8 WK PRIOR TO CARCINOGEN AND CONTINUING FOR 6 WK POST CARCINOGEN (STUDY DURATION: 68 WK), Route [Inhibitor]: ORAL, Species: FISH, Strain/Sex: RAINBOW TROUT, Target Tissue: Type of Lesion: LIVER: HEPATOCELLULAR CARCINOMA, Dose [Carcinogen]: 20 PPB IN DIET FOR 2 WK) is on record as 43/118 (36%), 38/118 (32%), 11%, not significant.

For `CC(C)=CCC/C(C)=C/CC/C(C)=C/CC/C=C(\C)CC/C=C(\C)CCC=C(C)C`, the “tumour outcome (control, treated, inhibition, significance)” value (Carcinogen: BENZO[A]PYRENE, 50-32-8, Dose [Inhibitor]: 25 MG IN 0.1 ML ACETONE 3/WK ADMINISTERED SIMULTANEOUSLY WITH CARCINOGEN FOR DURATION OF STUDY (STUDY DURATION: 440 D), Route [Inhibitor]: DERMAL, Species: MOUSE, Strain/Sex: ICR/FEMALE, Target Tissue: Type of Lesion: SKIN: PAPILLOMA, Dose [Carcinogen]: 5 UG IN 0.1 ML ACETONE 3/WK FOR DURATION OF STUDY) is 16/50 (32%), 1/50 (2%), 94%, not calculated and the “tumour outcome (control, treated, inhibition, significance)” value (Carcinogen: BENZO[A]PYRENE, 50-32-8, Dose [Inhibitor]: 25 MG IN 0.1 ML ACETONE 3/WK ADMINISTERED SIMULTANEOUSLY WITH CARCINOGEN FOR DURATION OF STUDY (STUDY DURATION: 440 D), Route [Inhibitor]: DERMAL, Species: MOUSE, Strain/Sex: ICR/FEMALE, Target Tissue: Type of Lesion: SKIN: SQUAMOUS CARCINOMA, Dose [Carcinogen]: 5 UG IN 0.1 ML ACETONE 3/WK FOR DURATION OF STUDY) is 12/50 (24%), 0/50 (0%), 100%, not calculated.

Turning to `CC(C)(C)c1ccccc1O`, the “tumour outcome (control, treated, inhibition, significance)” value (Carcinogen: BENZO[A]PYRENE, 50-32-8, Dose [Inhibitor]: 0.03 MMOL/G OF DIET DAILY STARTING 7 D BEFORE AND CONTINUING THROUGH 3 D AFTER CARCINOGEN TREATMENT FOLLOWED BY OBSERVAT, Route [Inhibitor]: ORAL, Species: MOUSE, Strain/Sex: ICR/FEMALE, Target Tissue: Type of Lesion: FORESTOMACH: NEOPLASM, Dose [Carcinogen]: 1 MG IN 0.2 ML CORN OIL 2/WK FOR 4 WK) was 94%, 85%, 10%, not significant and 100%, 95%, 5%, not significant.
